Data from PMC10257182, “Discovery of senolytics using machine learning” (Nature Communications, 2023).
Counter-ions that a name gives are not always drawn. Like-named read-outs stand apart in the source and are kept apart here.

Tests used:
Type in all cases: cell-based, human
[1] = test system: non-senescent control IMR90 ER:RAS cells; assay: Nuclei count (Hoechst, high content imaging) senolytic assay, OIS model, non-senescent control cells; settings: Homo sapiens
Outline: (§1)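 We compared total nuclei counts between senescent and non-senescent IMR90 ER:RAS cells after 72 h compound exposure (10 nM–10 μM). Hoechst staining followed fixation and permeabilisation; ouabain served as senolytic positive control.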

[2] = test system: non-senescent control A549 cells; assay: Nuclei count senolytic assay, TIS model, non-senescent control cells; settings: Homo sapiens, A549, read-out: Mean % Cell Survival
Outline: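 Nuclei counting by high-content imaging after 72 h compound treatment of senescent (etoposide-induced) versus control A549 cells. Top dose 10 μM final, lowest 10 nM.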

[3] = test system: senescent IMR90 ER:RAS cells (4-OHT-induced); assay: Nuclei count (Hoechst, high content imaging) senolytic assay, oncogene-induced senescence (OIS) model, senescent cells
Outline: as §1

C[C@H](CCC(=O)NCCS(=O)(=O)O)[C@H]1CC[C@H]2[C@@H]3[C@H](O)C[C@@H]4C[C@H](O)CC[C@]4(C)[C@H]3C[C@H](O)[C@]12C [Taurocholic acid sodium, taurocholic acid sodium salt hydrate]
viability at 10 µM ([1]; IMR-90, 72 h, read-out: Mean % Cell Survival, Control, log (dose) [M] -5, 72 h, mean n=3 (Fig 3C)): 105% | viability at 4.677 µM ([1]; IMR-90, 72 h, read-out: Mean % Cell Survival, Control, log (dose) [M] -5.33, 72 h, mean n=3 (Fig 3C)): 107% | viability at 2.188 µM ([1]; IMR-90, 72 h, read-out: Mean % Cell Survival, Control, log (dose) [M] -5.66, 72 h, mean n=3 (Fig 3C)): 115% | viability at 1 µM ([1]; IMR-90, 72 h, read-out: Mean % Cell Survival, Control, log (dose) [M] -6, 72 h, mean n=3 (Fig 3C)): 108% | viability at 0.4677 µM ([1]; IMR-90, 72 h, read-out: Mean % Cell Survival, Control, log (dose) [M] -6.33, 72 h, mean n=3 (Fig 3C)): 104% | viability at 0.2188 µM ([1]; IMR-90, 72 h, read-out: Mean % Cell Survival, Control, log (dose) [M] -6.66, 72 h, mean n=3 (Fig 3C)): 95.4% | viability at 0.1 µM ([1]; IMR-90, 72 h, read-out: Mean % Cell Survival, Control, log (dose) [M] -7, 72 h, mean n=3 (Fig 3C)): 81% | viability at 0.04677 µM ([1]; IMR-90, 72 h, read-out: Mean % Cell Survival, Control, log (dose) [M] -7.33, 72 h, mean n=3 (Fig 3C)): 94.8% | viability at 0.02188 µM ([1]; IMR-90, 72 h, read-out: Mean % Cell Survival, Control, log (dose) [M] -7.66, 72 h, mean n=3 (Fig 3C)): 103% | viability at 0.01 µM ([1]; IMR-90, 72 h, read-out: Mean % Cell Survival, Control, log (dose) [M] -8, 72 h, mean n=3 (Fig 3C)): 98.6% | viability at 10 µM ([1]; IMR-90, read-out: % Cell Survival, Control cells, log (dose) [M] -5, individual replicates, SUP FIG 4C): 105% | viability at 4.677 µM ([1]; IMR-90, read-out: % Cell Survival, Control cells, log (dose) [M] -5.33, individual replicates, SUP FIG 4C): 105% | viability at 2.188 µM ([1]; IMR-90, read-out: % Cell Survival, Control cells, log (dose) [M] -5.66, individual replicates, SUP FIG 4C): 122% | viability at 0.2188 µM ([1]; IMR-90, read-out: % Cell Survival, Control cells, log (dose) [M] -6.66, individual replicates, SUP FIG 4C): 98.1% | viability at 0.02188 µM ([1]; IMR-90, read-out: % Cell Survival, Control cells, log (dose) [M] -7.66, individual replicates, SUP FIG 4C): 103% | viability at 0.01 µM ([1]; IMR-90, read-out: % Cell Survival, Control cells, log (dose) [M] -8, individual replicates, SUP FIG 4C): 95% | viability at 10 µM ([1]; IMR-90, read-out: % Cell Survival, Control, log (dose) [M] -5): 101% | viability at 4.68 µM ([1]; IMR-90, read-out: % Cell Survival, Control, log (dose) [M] -5.33): 103% | viability at 2.19 µM ([1]; IMR-90, read-out: % Cell Survival, Control, log (dose) [M] -5.66): 108% | viability at 1 µM ([1]; IMR-90, read-out: % Cell Survival, Control, log (dose) [M] -6): 99.9% | viability at 0.468 µM ([1]; IMR-90, read-out: % Cell Survival, Control, log (dose) [M] -6.33): 102% | viability at 0.219 µM ([1]; IMR-90, read-out: % Cell Survival, Control, log (dose) [M] -6.66): 100% | viability at 0.1 µM ([1]; IMR-90, read-out: % Cell Survival, Control, log (dose) [M] -7): 87.4% | viability at 0.04677 µM ([1]; IMR-90, read-out: % Cell Survival, Control, log (dose) [M] -7.33): 102% | viability at 0.0219 µM ([1]; IMR-90, read-out: % Cell Survival, Control, log (dose) [M] -7.66): 97.8% | viability at 0.01 µM ([1]; IMR-90, read-out: % Cell Survival, Control, log (dose) [M] -8): 95.8% | viability at 0.01 µM [2]: 66.6% | viability at 0.0219 µM [2]: 32.6% | viability at 0.0468 µM [2]: 97.7% | viability at 0.1 µM [2]: 29.1% | viability at 0.219 µM [2]: 62.6% | viability at 0.468 µM [2]: 97.8% | viability at 1 µM [2]: 95.9% | viability at 2.19 µM [2]: 69.4% | viability at 4.68 µM [2]: 66.2% | viability at 10 µM [2]: 96.3% | viability at 10 µM ([3]; Homo sapiens, IMR-90, 72 h, read-out: Mean % Cell Survival, Senescent, log (dose) [M] -5, 72 h, mean n=3 (Fig 3C)): 110% | viability at 4.677 µM ([3]; Homo sapiens, IMR-90, 72 h, read-out: Mean % Cell Survival, Senescent, log (dose) [M] -5.33, 72 h, mean n=3 (Fig 3C)): 132% | viability at 2.188 µM ([3]; Homo sapiens, IMR-90, 72 h, read-out: Mean % Cell Survival, Senescent, log (dose) [M] -5.66, 72 h, mean n=3 (Fig 3C)): 115% | viability at 1 µM ([3]; Homo sapiens, IMR-90, 72 h, read-out: Mean % Cell Survival, Senescent, log (dose) [M] -6, 72 h, mean n=3 (Fig 3C)): 123% | viability at 0.4677 µM ([3]; Homo sapiens, IMR-90, 72 h, read-out: Mean % Cell Survival, Senescent, log (dose) [M] -6.33, 72 h, mean n=3 (Fig 3C)): 106% | viability at 0.2188 µM ([3]; Homo sapiens, IMR-90, 72 h, read-out: Mean % Cell Survival, Senescent, log (dose) [M] -6.66, 72 h, mean n=3 (Fig 3C)): 99.8% | viability at 0.1 µM ([3]; Homo sapiens, IMR-90, 72 h, read-out: Mean % Cell Survival, Senescent, log (dose) [M] -7, 72 h, mean n=3 (Fig 3C)): 96.6% | viability at 0.04677 µM ([3]; Homo sapiens, IMR-90, 72 h, read-out: Mean % Cell Survival, Senescent, log (dose) [M] -7.33, 72 h, mean n=3 (Fig 3C)): 108% | viability at 0.02188 µM ([3]; Homo sapiens, IMR-90, 72 h, read-out: Mean % Cell Survival, Senescent, log (dose) [M] -7.66, 72 h, mean n=3 (Fig 3C)): 112% | viability at 0.01 µM ([3]; Homo sapiens, IMR-90, 72 h, read-out: Mean % Cell Survival, Senescent, log (dose) [M] -8, 72 h, mean n=3 (Fig 3C)): 107% | viability at 0.2188 µM ([3]; Homo sapiens, IMR-90, read-out: % Cell Survival, Senescent cells, log (dose) [M] -6.66, individual replicates, SUP FIG 4C): 105% | viability at 0.1 µM ([3]; Homo sapiens, IMR-90, read-out: % Cell Survival, Senescent cells, log (dose) [M] -7, individual replicates, SUP FIG 4C): 101% | viability at 4.677 µM ([3]; Homo sapiens, IMR-90, read-out: % Cell Survival, Senescent, log (dose) [M] -5.33): 118% | senolytic activity (in words) ([3]; experimental screen, OIS IMR90 ER:RAS): inactive
